How the values were obtained:
HBV = assay: Anti-HBV activity, HepG2.117 inducible HBV producing cell line (Tet-off), intracellular HBV DNA by realtime PCR; format: cell-based; conditions: Hepatitis B virus, 72 h; HepG2.117 cells, 3 days of treatment, intracellular HBV DNA; read-out: HepG2 117 EC50
[1] = Cytotoxicity in HepG2 cells, Resazurin viability assay; conditions: human, HepG2 cells

Row | SMILES | EC50 (HBV) | CC50 at 4 days [1]
1 | Cc1c(C(=O)C(=O)NC2(C(F)(F)F)CC2)cc(C(=O)Nc2ccc(F)c(C#N)c2)n1C [Compound 57, N-(3-cyano-4-fluoro-phenyl)-1,5-dimethyl-4-[2-oxo-2-[[1-(trifluoromethyl)-cyclopropyl]amino]acetyl]pyrrole-2-carboxamide] | 0.006 µM | > 25 µM
2 | Cc1c(C(=O)C(=O)NC(C)(C)C)c(F)c(C(=O)Nc2ccc(F)c(C#N)c2)n1C [Compound 36, 4-[2-(tert-butylamino)-2-oxo-acetyl]-N-(3-cyano-4-fluoro-phenyl)-3-fluoro-1,5-dimethyl-pyrrole-2-carboxamide] | < 0.004 µM | > 25 µM
3 | Cc1c(C(=O)C(=O)NC(C)C)c(Cl)c(C(=O)Nc2ccc(F)c(C#N)c2)n1C [Compound 45, 3-chloro-N-(3-cyano-4-fluoro-phenyl)-4-[2-(isopropylamino)-2-oxo-acetyl]-1,5-dimethyl-pyrrole-2-carboxamide] | 0.006 µM | > 25 µM
4 | Cc1c(C(=O)C(=O)NC(C)C(C)(C)O)cc(C(=O)Nc2ccc(F)c(C#N)c2)n1C (stereo not shown) [Compound 72, N-(3-cyano-4-fluoro-phenyl)-4-[2-[(2-hydroxy-1,2-dimethyl-propyl)amino]-2-oxo-acetyl]-1,5-dimethyl-pyrrole-2-carboxamide] | 0.018 µM | > 25 µM
5 | Cn1c(C#N)c(C(=O)C(=O)NC(C)(C)C)c(Cl)c1C(=O)Nc1ccc(F)c(C#N)c1 [Compound 49, 4-[2-(tert-butylamino)-2-oxo-acetyl]-3-chloro-5-cyano-N-(3-cyano-4-fluoro-phenyl)-1-methyl-pyrrole-2-carboxamide] | 0.034 µM | > 25 µM
6 | Cn1cc(C(=O)C(=O)NC2(C)CC(F)(F)C2)c(F)c1C(=O)Nc1ccc(F)c(C#N)c1 [Compound 35, N-(3-cyano-4-fluoro-phenyl)-4-[2-[(3,3-difluoro-1-methyl-cyclobutyl)-amino]-2-oxo-acetyl]-3-fluoro-1-methyl-pyrrole-2-carboxamide] | 0.004 µM | > 25 µM
7 | COCC(C)(CCO)NC(=O)C(=O)c1cc(C(=O)Nc2ccc(F)c(C#N)c2)n(C)c1C (stereo not shown) [Compound 70, N-(3-cyano-4-fluoro-phenyl)-4-[2-[[3-hydroxy-1-(methoxymethyl)-1-methyl-propyl]amino]-2-oxo-acetyl]-1,5-dimethyl-pyrrole-2-carboxamide] | 0.025 µM | > 25 µM
8 | Cc1c(C(=O)C(=O)NC2(C)CC(F)(F)C2)cc(C(=O)Nc2ccc(F)c(C#N)c2)n1C [Compound 56, N-(3-cyano-4-fluoro-phenyl)-4-[2-[(3,3-difluoro-1-methyl-cyclobutyl)-amino]-2-oxo-acetyl]-1,5-dimethyl-pyrrole-2-carboxamide] | 0.005 µM | > 25 µM
9 | C[C@@H](NC(=O)C(=O)c1cn(C)c(C(=O)Nc2ccc(F)c(C#N)c2)c1Br)C(F)(F)F [Compound 26, 3-bromo-N-(3-cyano-4-fluoro-phenyl)-1-methyl-4-[2-oxo-2-[[(1R)-2,2,2-trifluoro-1-methyl-ethyl]amino]acetyl]pyrrole-2-carboxamide] | 0.07 µM | > 25 µM
10 | Cc1c(C(=O)C(=O)NC(C)(CO)C2CC2)cc(C(=O)Nc2ccc(F)c(C#N)c2)n1C (stereo not shown) [Compound 77, N-(3-cyano-4-fluoro-phenyl)-4-[2-[(1-cyclopropyl-2-hydroxy-1-methyl-ethyl)amino]-2-oxo-acetyl]-1,5-dimethyl-pyrrole-2-carboxamide] | 0.012 µM | > 25 µM
11 | C[C@@H](NC(=O)C(=O)c1c(Cl)c(C(=O)Nc2ccc(F)c(C#N)c2)n(C)c1Br)C(F)(F)F [Compound 29, 5-bromo-3-chloro-N-(3-cyano-4-fluoro-phenyl)-1-methyl-4-[2-oxo-2-[[(1R)-2,2,2-trifluoro-1-methyl-ethyl]amino]acetyl]pyrrole-2-carboxamide] | 0.014 µM | > 25 µM
12 | Cc1c(C(=O)C(=O)NC2(C(F)(F)F)CCC2)c(Cl)c(C(=O)Nc2ccc(F)c(C#N)c2)n1C [Compound 43, 3-chloro-N-(3-cyano-4-fluoro-phenyl)-1,5-dimethyl-4-[2-oxo-2-[[1-(tri-fluoromethyl)cyclobutyl]amino]acetyl]pyrrole-2-carboxamide] | 0.003 µM | > 25 µM
13 | Cn1c(Cl)c(C(=O)C(=O)NC2(C(F)(F)F)CCOC2)c(F)c1C(=O)Nc1ccc(F)c(C#N)c1 (stereo not shown) [Compound 89, 5-chloro-N-(3-cyano-4-fluoro-phenyl)-3-fluoro-1-methyl-4-[2-oxo-2-[[3-(trifluoromethyl)tetrahydrofuran-3-yl]amino]acetyl]pyrrole-2-carboxamide] | 0.008 µM | > 25 µM
14 | C[C@@H](NC(=O)C(=O)c1c(Cl)c(C(=O)Nc2ccc(F)c(C#N)c2)n(C)c1Cl)C(F)(F)F [Compound 86, 3,5-dichloro-N-(3-cyano-4-fluoro-phenyl)-1-methyl-4-[2-oxo-2-[[(1R)-2,2,2-trifluoro-1-methyl-ethyl]amino]acetyl]pyrrole-2-carboxamide] | 0.006 µM | > 25 µM
15 | Cc1c(C(=O)C(=O)N[C@H]2[C@H](C)CC[C@H]2O)cc(C(=O)Nc2ccc(F)c(C#N)c2)n1C [Compound 66, N-(3-cyano-4-fluoro-phenyl)-4-[2-[[(1S,2R,5R)-2-hydroxy-5-methyl-cyclopentyl]amino]-2-oxo-acetyl]-1,5-dimethyl-pyrrole-2-carboxamide] | 0.11 µM | > 25 µM
16 | Cc1c(C(=O)C(=O)NC(C)(C)CO)cc(C(=O)Nc2ccc(F)c(C#N)c2)n1C [Compound 94, N-(3-cyano-4-fluoro-phenyl)-4-[2-[(2-hydroxy-1,1-dimethyl-ethyl)amino]-2-oxo-acetyl]-1,5-dimethyl-pyrrole-2-carboxamide] | 0.004 µM | > 25 µM
17 | C[C@@H](NC(=O)C(=O)c1c(Br)c(C(=O)Nc2ccc(F)c(C#N)c2)n(C)c1Br)C(F)(F)F [Compound 27, 3,5-dibromo-N-(3-cyano-4-fluoro-phenyl)-1-methyl-4-[2-oxo-2-[[(1R)-2,2,2-trifluoro-1-methyl-ethyl]amino]acetyl]pyrrole-2-carboxamide] | 0.005 µM | > 25 µM
18 | Cn1c(C(=O)Nc2ccc(F)c(C#N)c2)c(Cl)c(C(=O)C(=O)NC(C)(C)C)c1C(F)(F)F [Compound 33, 4-[2-(tert-butylamino)-2-oxo-acetyl]-3-chloro-N-(3-cyano-4-fluoro-phenyl)-1-methyl-5-(trifluoromethyl)pyrrole-2-carboxamide] | 0.247 µM | > 25 µM
19 | Cn1c(C(=O)Nc2ccc(F)c(C#N)c2)c(Cl)c(C(=O)C(=O)NC(C)(C)C)c1C1CC1 [Compound 48, 4-[2-(tert-butylamino)-2-oxo-acetyl]-3-chloro-N-(3-cyano-4-fluoro-phenyl)-5-cyclopropyl-1-methyl-pyrrole-2-carboxamide] | 0.022 µM | > 25 µM
20 | Cc1c(C(=O)C(=O)N[C@H]2CCN(C)C[C@H]2O)cc(C(=O)Nc2ccc(F)c(C#N)c2)n1C [Compound 62, N-(3-cyano-4-fluoro-phenyl)-4-[2-[[(3R,4S)-3-hydroxy-1-methyl-4-piperidyl]amino]-2-oxo-acetyl]-1,5-dimethyl-pyrrole-2-carboxamide] | 0.23 µM | > 25 µM

— US10450270B2, “Glyoxamide substituted pyrrolamide derivatives and the use thereof as medicaments for the treatment of hepatitis B” (Janssen Sciences Ireland UC, priority 2013, dated 2019)
